The record followed here is patent publication US20130129832A1, “COGNITIVE IMPAIRMENT AMELIORANT” (TOHOKU UNIVERSITY, priority 2008, published 2013).

Assay [1] has as its system CRE-dependent transcription in cultured rat hippocampal neuronal cells. The experiment in a line: CRE-dependent transcription reporter gene (luciferase) assay in cultured rat hippocampal neuronal cells. It counts as cell-based. The note with it: 8 hours treatment with different concentrations, FIGS. 5 and 6. Here is the method:
(§1) FIG. 5 indicates concentration-dependent effects of nobiletin on CRE-dependent transcription in cultured rat hippocampal neuronal cells. Cells were inoculated at a density of 8×10^4 cells/48 well plate followed by holding the plate for 10 to 14 days. […] Following transfection, the cells were treated for 8 hours with different concentrations of […]. Data is shown as the mean±S.E.M. (n=6). Asterisks (*) indicate a level of significance of p<0.05 relative to a control, while double asterisks (**) indicate a level of significance of p<0.001 relative to a control.
as §1, with “FIG. 6 indicates concentration-dependent” for “FIG. 5 indicates concentration-dependent”, “effects of 4-demethylated nobiletin on” for “effects of nobiletin on”
A pregnant SD rat (E18) was sacrificed by cervical dislocation under ether anesthesia. […]
Results obtained from the reporter gene assay were evaluated using one-way ANOVA (Tukey). […]

The test system of assay [2] is ERK phosphorylation in PC12D cells. The experiment in a line: ERK phosphorylation in PC12D cells by western blotting (p-ERK relative to total ERK). In kind it is cell-based. The note with it: 15 minutes treatment, 30 μM nobiletin alone, FIG. 2. The method, then:
Therefore, the effects of royal jelly and the effects of the combined used of royal jelly and nobiletin on ERK activity in PC12D cells, which are considered to be model cells of nerve cells, were examined by western blotting using as an indicator thereof the effects of water-soluble components of “Royal Jelly FD Powder” on ERK phosphorylation.
PC12D cells (Aichi Prefectural County Research Institute) were sub-cultured using Dulbecco's Modified Eagle Medium (DMEM) comprising heat inactivated (56° C., 30 minutes) 5% horse serum (HS: Gibco), 10% fetal calf serum (FCS: CELLect), penicillin (50 units/mL) and streptomycin ([…]). […]
PC12D cells were inoculated into a 35 mm dish at 1×10^6 cells/dish, and after culturing for 24 hours in a CO2 incubator, the cells were treated with drug. […] Moreover, after subjecting to ultrasonic treatment for 5 minutes in ice water, the lysate was centrifuged for 20 minutes at 14,000 rpm followed by recovery of the supernatant and quantification of the amount of protein. […] Bands were detected using the ECL method. […]
PC12D cells were inoculated into a 3.5 cm dish at 1×10^6 cells/dish and cultured overnight followed by treating for 15 minutes with low-serum medium comprising various drugs, and lysing the cells with cell lysis solution to obtain a cell extract. The expression levels of p-ERK and total ERK in the cell extract were then analyzed. […]
Background: A western blot detects proteins with antibodies after separation by electrophoresis.

Consider `COc1cc(-c2cc(=O)c3c(OC)c(OC)c(OC)c(OC)c3o2)ccc1O` [4-demethylated nobiletin, 2-(4-hydroxy-3-methoxyphenyl)-5,6,7,8-tetramethoxychromen-4-one], for which the “effect on CRE-dependent transcription” value in assay [1] is listed as “concentration-dependently promote CRE-dependent transcription in the same manner as nobiletin”.

For the molecule `COc1ccc(-c2cc(=O)c3c(OC)c(OC)c(OC)c(OC)c3o2)cc1OC` [nobiletin, 5,6,7,8,3′,4′-hexamethoxyflavone], the “effect on CRE-dependent transcription” value in assay [1] is listed as “concentration-dependently promote CRE-dependent transcription”. Besides, the “effect on ERK phosphorylation” value in assay [2] is listed as “only demonstrated weak promoting action of ERK phosphorylation when used alone”.
